Reference: PMC12502323, “Discovery of small molecules with anthelmintic potential in the Medicines for Malaria Venture’s COVID and Global Health Priority Boxes using an infrared-based assay for Caenorhabditis elegans motility” (BMC Research Notes, 2025)
Several values for one entry are separate records, joined by “and”; a condition that tells them apart may be missing. Identical values can stand only once. Like-named read-outs stand apart in the source and are kept apart here.

What was measured:
Caenorhabditis elegans [1] = test: Primary screen, infrared-based (WMicroTracker ONE) C. elegans L4 motility assay at 40 µM; type: cell-based, Caenorhabditis elegans (Bristol N2); details: primary screen at 40 µM; for C. elegans Mean motility vs. DMSO control (%): C. elegans L4; for C. elegans NOTES (HIT): hit if motility < 25%
Description: (§1) Methods to cultivate C. elegans (Bristol N2) and synchronize growth to the L4 stage were as described. WMicroTracker ONE (Phylumtech, Argentina) detects movement by measuring the scattering of infrared light beams that are projected into each well of a microtiter plate (two 880 nm beams/well in a 96w plate).
(§2) Synchronized C. elegans L4 were detached from agar and collected in M9 buffer. Worms were centrifuged for 1 min at 1,900 g and washed in S medium to decrease the concentration of E. coli OP50 that might interfere with infrared detection. Control and assay compounds (1 µL) in DMSO (Fisher Scientific, Cat# BP231-100) were spotted into each well of a clear, flat-bottomed 96-well polystyrene plate (Fisherbrand, Cat# FB012931). DMSO (1%) was used as the negative control. Approximately 70 L4 in 100 µL S medium were added per well. First pass screens employed 40 µM compound, and motility was measured every 20 min for 24 h in the WMicroTracker ONE reader in which the temperature was 25 ± 1 °C. Motility was normalized relative to the DMSO controls. Hits were defined as compounds that decreased motility to ≤ 25% of that in DMSO control worms.

Caenorhabditis elegans [2] = test: Concentration response C. elegans L4 motility assay (WMicroTracker ONE), EC50; type: cell-based, Caenorhabditis elegans (Bristol N2); details: read-out: EC50 (motility)
Description: as §1, §2
For potent compounds, concentration response assays (nine concentrations: 0.005 µM to 40 or 100 µM) were conducted to measure the half-maximal effective concentration (EC50). Compounds were serially diluted in DMSO using 96-well, v-bottomed polypropylene dilution plates (ThermoFisher Scientific, Cat#: 249944) and 1 µL aliquots spotted into each well of the assay plates. Motility was measured as described above. Prism GraphPad, Version 8.0 (GraphPad Software, San Diego, CA) was used to calculate EC50 values using a non-linear sigmoidal four parameter logistic curve.

HEK293 cells = test: HEK293 cytotoxicity assay (resazurin); type: cell-based, Human
Description: (§3) Potent compounds were also evaluated for cytotoxicity against HEK293 cells. Cells were cultured at 37 °C and 5% in Dulbecco’s Modified Eagle Medium (DMEM; Gibco, Cat#: 11965-092) containing 10% heat-inactivated fetal bovine serum (FBS; Omega Scientific Inc., Cat#: FB02) and 1% penicillin-streptomycin (ThermoFisher Scientific, Cat#: 15140122), and then sub-cultured when 60–80% confluent. Cells were detached with 0.05% trypsin/EDTA (ThermoFisher Scientific, Cat#: 25300054) and centrifuged for 5 min at 1,900 g.
(§4) Screens were performed over 11 compound concentrations (0.00007–40 µM) that had been prepared in DMSO. Aliquots (1 µL) were spotted into each well of a clear-bottomed, 96-well, polystyrene assay plate (Fisher Scientific, Cat#: FB012931). Approximately 20,000 HEK293 cells in 99 µL of the above supplemented DMEM were then added to each well. After 46 h at 37 °C and 5% CO2, 20 µL 0.5 mM resazurin (ThermoFisher Scientific, Cat#: B21187.03) were added and the incubation continued for 2 h at 37 °C [27]. Fluorescence was measured in a 2104 EnVision Multilabel Plate Reader (PerkinElmer) at 560 and 590 nm excitation and emission wavelengths, respectively. Raw data were exported from the EnVision Workstation software (version 1.13.3009.1401; PerkinElmer) into Prism GraphPad, and the half-maximal cytotoxic concentration (CC50) values were calculated using a non-linear regression curve.

C. elegans L4 = tested on: C. elegans L4; design: method as in PMID 38486232; details: GHPB screen, WMicroTracker ONE; cited from earlier work
Haemonchus contortus = tested on: Haemonchus contortus; design: method as in PMID 38486232; details: GHPB screen, WMicroTracker ONE; cited from earlier work
[3] = HEK293 cytotoxicity assay (resazurin); type: cell-based, Human; details: human, HEK293 cell viability after 48 h, read-out: CC50
Description: as §3, §4

C. elegans = details: read-out: EC50 previously recorded, cited from earlier work

| Compound | C. elegans Mean motility vs. DMSO control (%) (Caenorhabditis elegans [1]) | C. elegans NOTES (HIT) (Caenorhabditis elegans [1]) | hit in screen against C. elegans L4 (C. elegans L4) | hit in screen against exsheathed L3 of Haemonchus contortus (Haemonchus contortus) | further results |
| --- | --- | --- | --- | --- | --- |
| O=C(Nc1ccc(Cl)c(C(F)(F)F)c1)Nc1ccc(Cl)c(C(F)(F)F)c1 [flucofuron] | 20.31% | HIT | hit only against the parasite | hit | EC50 (Caenorhabditis elegans [2]; C. elegans L4, after 24 h): 20600 ± 10700 nM; CC50 (HEK293 cells; HEK293 cell viability after 48 h): 453 ± 331 nM |
| CC(F)c1ncnc(NCCc2ccc(OC(F)(F)F)cc2)c1Cl (stereo not shown) [flufenerim] | 0.26% | HIT | hit | hit | EC50 (Caenorhabditis elegans [2]; C. elegans L4, after 12 h): 211 ± 34 nM |
| COc1ccc2c(c1)c(CC(=O)O)c(C)n2C(=O)c1ccc(Cl)cc1 [indomethacin, reference compound] | 18.64% | HIT |  |  | EC50 (Caenorhabditis elegans [2]; Caenorhabditis elegans, C. elegans L4, after 24 h): 23200 ± 14100 nM; CC50 at 48 h ([3]; HEK293 cells): > 100 µM; cytotoxicity to HEK293 cells (in words) (HEK293 cells; HEK293 cells): not cytotoxic |
| CCc1nn(C)c(C(=O)NCc2ccc(Oc3ccc(C)cc3)cc2)c1Cl [tolfenpyrad] | 0.26% | HIT |  |  | EC50 (Caenorhabditis elegans [2]; Caenorhabditis elegans, C. elegans L4, after 12 h): 950 ± 256 nM; CC50 at 48 h [3]: 33.8 ± 31.4 µM; EC50 (C. elegans; after 24 h): 200 ± 40 nM |
| ivermectin [reference compound] |  | HIT |  |  | C. elegans Mean motility vs. DMSO control (%) (Caenorhabditis elegans [1]; listed as MMV672931): 3.37% and 9.96%; EC50 (Caenorhabditis elegans [2]; C. elegans L4, after 1 h): 130 ± 51 nM; EC50 (C. elegans; after 90 min): 190 ± 10 nM |
